Assay results: ChEMBL document CHEMBL5058564, “EUbOPEN Chemogenomics Library 2 (Incucyte)” (2022)

Key:
Format in all cases: toxicity, cell-based
[1] = tested on: HEK-293T; assay: Incucyte cell viability with HEK293T; settings: human, 10 µM, compound concentration 10 uM
[2] = tested on: Fibroblast; assay: Incucyte cell viability with human fibroblast; settings: 10 µM, compound concentration 10 uM
[3] = tested on: U2OS; assay: Incucyte cell viability with U2OS; settings: human, 10 µM, compound concentration 10 uM
[4] = 12 h, replicate number 1, timepoint 12 hours
[5] = 18 h, replicate number 1, timepoint 18 hours
[6] = 24 h, replicate number 1, timepoint 24 hours
[7] = 0 h, replicate number 1, timepoint 0 hours
[8] = 0 h, replicate number 2, timepoint 0 hours
[9] = 6 h, replicate number 2, timepoint 6 hours
[10] = 12 h, replicate number 2, timepoint 12 hours
[11] = 18 h, replicate number 2, timepoint 18 hours
[12] = 24 h, replicate number 2, timepoint 24 hours
[13] = 6 h, replicate number 1, timepoint 6 hours
Note: unitless GR value; below 1 slowed growth and below 0 cell loss.

Row | Compound | Growth Rate [1, 4] | Growth Rate [1, 5] | Growth Rate [1, 6] | Growth Rate [2, 7] | Growth Rate [2, 8] | Growth Rate [3, 9] | Growth Rate [3, 11] | Growth Rate [3, 12] | Growth Rate [1, 7] | Growth Rate [1, 8] | Growth Rate [2, 13] | Growth Rate [2, 4] | Growth Rate [2, 10] | Growth Rate [2, 12] | Growth Rate [3, 5] | Growth Rate [3, 6] | Growth Rate [1, 11] | Growth Rate [1, 12] | Growth Rate [2, 5] | Growth Rate [1, 10] | other results
1 | Cc1noc(-c2ccc(-c3ccc(CC(=O)O)cc3)cc2)c1NC(=O)O[C@H](C)c1ccccc1Cl | 0.85 | 0.67 | 0.81 | -0.69 | 0.54 | 0.82 | 0.93 | 0.95 |  |  |  |  |  |  |  |  |  |  |  |  | Growth Rate [3, 10]: 0.92
2 | C[S+](C)[O-] [DIMETHYL SULFOXIDE] |  | 0.93 |  |  | 0.18 | 0.93 | 0.98 |  | 0.62 | 0.67 | 0.29 | 0.81 | 0.86 | 0.93 | 0.94 | 0.98 |  |  |  |  | Growth Rate [3, 7]: 0.71; Growth Rate [3, 8]: -0.56; Growth Rate [3, 13]: 0.96
3 | Cc1ccccc1-c1cc(N2CCN(C)CC2)ncc1N(C)C(=O)C(C)(C)c1cc(C(F)(F)F)cc(C(F)(F)F)c1 [NETUPITANT] | 0.84 | 0.72 | 0.5 | -0.23 | 0.68 |  |  |  | 0.83 | 0.7 | 0.24 | 0.63 | 0.31 | 0.71 |  |  | 0.92 | 0.86 | 0.73 |  | Growth Rate [2, 11]: 0.71; Growth Rate [3, 7]: -0.52
4 | CC1(COc2ccc3c(c2)ncn3-c2ccc3cccc(N4CCC(N)CC4)c3n2)COC1 [CRENOLANIB] | -0.32 | -0.28 | -0.22 | -0.8 | -0.75 |  | 0.92 | 0.8 | -0.26 | -0.11 |  |  |  |  | 0.87 | 0.54 | -0.21 | -0.19 |  | -0.23 | Growth Rate [1, 13]: -0.46; Growth Rate [1, 9]: -0.5
5 | CCCCOCCOc1nc(-c2ccc(C(=O)O)c(F)c2)sc1C |  | 0.94 | 0.95 |  | -0.25 | 0.97 | 0.86 | 0.84 | 0.61 | 0.25 | 0.05 | 0.16 | 0.63 | 0.7 | 0.88 | 0.94 | 0.82 | 0.69 | 0.35 | 0.88 | Growth Rate [1, 9]: 0.87; Growth Rate [2, 11]: 0.73; Growth Rate [2, 6]: 0.23; Growth Rate [3, 7]: -0.03; Growth Rate [3, 8]: -0.3; Growth Rate [3, 13]: 0.21; Growth Rate [3, 4]: 0.49
6 | O=c1ccn([C@@H]2O[C@H](COP(=O)([O-])OP(=O)([O-])OP(=O)([O-])O)[C@@H](O)[C@H]2O)c(=O)[nH]1.[Na+].[Na+].[Na+] | 0.84 | 0.92 | 0.85 |  | 0.81 | 0.83 | 0.93 | 0.94 | 0.09 | 0.62 | 0.2 | 0.12 | 0.75 | 0.78 | 0.83 | 0.99 | 0.75 | 0.72 | 0.29 | 0.64 | Growth Rate [1, 13]: 0.64; Growth Rate [1, 9]: 0.41; Growth Rate [2, 9]: 0.66; Growth Rate [2, 11]: 0.88; Growth Rate [2, 6]: 0.13; Growth Rate [3, 7]: 0.49; Growth Rate [3, 8]: 0.48; Growth Rate [3, 13]: 0.21; Growth Rate [3, 4]: 0.6; Growth Rate [3, 10]: 0.94
7 | COc1c(Nc2ccc(S(C)(=O)=O)nc2C)ncnc1OC1CCN(C(=O)OC(C)C)CC1 [ADP-597] | 0.45 | 0.51 | 0.74 |  | 0.94 |  |  |  |  |  | 0.72 | 0.53 | 0.7 |  | 0.98 | 1 |  |  | 0.34 |  | Growth Rate [1, 13]: 0.29; Growth Rate [2, 6]: 0.88
8 | N#Cc1c(Oc2cccc(OS(=O)(=O)CCCC(F)(F)F)c2)cccc1C(F)(F)F | 0 | -0.01 | 0.06 | 0.09 |  |  | 0.81 | 0.96 |  |  | -0.53 | -0.11 | -0.08 | 0 |  |  | 0.31 | 0.55 | -0.21 | 0.28 | Growth Rate [1, 13]: -0.16; Growth Rate [1, 9]: 0.24; Growth Rate [2, 9]: -0.47; Growth Rate [2, 11]: 0.02; Growth Rate [2, 6]: -0.18; Growth Rate [3, 8]: 0.57; Growth Rate [3, 4]: 0.86; Growth Rate [3, 10]: 0.82
9 | O=C1NC(=Nc2c(Cl)cccc2Cl)S/C1=C\c1ccc2nccnc2c1 | 0.15 | 0.07 | 0.26 | 0.9 | 0.72 | 0.81 | 0.57 | 0.59 | 0.36 | 0.37 | 0.24 | 0.09 | 0.32 | 0.48 | 0.55 | 0.63 | 0.05 | 0.15 | 0.4 | -0.06 | Growth Rate [1, 13]: 0.34; Growth Rate [1, 9]: 0.18; Growth Rate [2, 9]: 0.79; Growth Rate [2, 11]: 0.61; Growth Rate [2, 6]: 0.39; Growth Rate [3, 8]: -0.91; Growth Rate [3, 13]: 0; Growth Rate [3, 4]: 0.33; Growth Rate [3, 10]: 0.54
10 | COC(=O)N1CCN(C(=O)Cc2ccc(Cl)c(Cl)c2)C(CN2CCCC2)C1.O=C(O)/C=C/C(=O)O (stereo not drawn) |  |  |  |  | 0.83 | 0.4 | 0.75 | 0.76 | 1 |  |  |  |  |  |  |  |  |  |  | 0.72 | Growth Rate [2, 9]: 0.71; Growth Rate [3, 13]: 0.36; Growth Rate [3, 4]: 0.75; Growth Rate [3, 10]: 0.54
